Measurements taken from patent US20090221651A1, “CHEMICAL PRECONDITIONING AS A PREVENTATIVE OR TREATMENT FOR EXCITOTOXIC SYNAPTIC DAMAGE” (priority 2005, published 2009).
“And” between values parts separate entries of the source, which are not always exact repeats. Equal entries are not always repeated. “Also recorded” adds a separate entry of the source.

How the values were obtained:
Format in all cases: cell-based, rat
[1] = tested on: dissociated hippocampal cultures; experiment: Dendritic beading in cultured neurons after depolarizing KCl pulses; conditions: for dendritic beading after 1 s KCl pulses in cPAF-exposed cultures: CNQX 10 μM together with AP-5 50 μM
Description: (§1) Primary hippocampal cultures and dendrite imaging. Dissociated hippocampal cultures from embryonic (E18) rats were prepared as previously described (53), plated on coverslips coated with poly-D-lysine and mouse laminin (reagents from Sigma-Aldrich unless otherwise noted) in Neurobasal plus B-27 media (GIBCO). After one week, 53 mM NaCl was added (to match solutions for physiological experiments) and antioxidants were removed from the media. Experiments were repeated using cultures from multiple dissections. Rodents were housed and treated in compliance with University of Rochester Committee on Animal Resources and NIH policies, and New York State and federal statutes.
(§2) At 20-24 days in vitro (DIV) neurons were transfected with EYFP (Clontech) or mRFP-1 (kind gift of Roger Tsien) vectors driven by CMV promoter, in a 1:2 ratio with Lipofectamine 2000 (Invitrogen). Serial fluorescence images of individual, live neurons (23-30 DIV) before and after exposure to 130 nM cPAF (Biomol) and/or synaptic stimulation by KCl were captured. For 60-hour exposure experiments, a 10 mM stock solution of cPAF (in EtOH) or vehicle was diluted into culture media. Neuronal survival was measured by Hoechst nuclear staining and propidium iodide exclusion.
For acute KCl stimulation experiments, coverslips were perfused in a custom-made chamber (200 μl) with bath solution (in mM: NaCl 139.5, KCl 2.5, CaCl2 2, MgCl2 1, glucose 24, HEPES 5, glycine 0.01, pH 7.3) at […], and exposed cultures to vehicle or cPAF for 20-90 min prior to stimulation. KCl (90 mM) was locally applied over the entire dendritic arbor of EYFP- or mRFP-expressing neurons in three 1- or 5-s pulses (10 s apart) using an 8-channel drug delivery system (ALA Scientific Instruments). In some experiments BN52021 (Biomol) or CNQX and AP-5 were added.
(§3) Dendrite morphology. For in vitro experiments pre- and post-exposure images of the same cells were compared. A neuron was considered beaded if its dendrites developed any focal swellings during the experiments (10, 14), though multiple dendrites were typically involved. Changes in spine number were determined by counting spines on the same dendrites before and after treatment.
(§4) Statistics. Differences in frequencies of dendritic beading were analyzed by Chi square, and changes in dendritic spine number by paired t-test. EPSP slope data were pooled over 10-minute intervals and used two-tailed t-tests to compare between groups or time points. A 0.05 significance level was used for all tests.

CA1 pyramidal neurons [2] = experiment: EPSP potentiation (LTP) after HFS in acute hippocampal slices, whole-cell patch clamp; conditions: for effect on synaptic potentiation / LTP in cPAF-exposed slices: BAPTA 5 mM, Ac-DEVD-CHO 10 μM, diazoxide 30 μM, PAF-R antagonists
Description: (§5) Imaging and LTP in acute hippocampal slices. Brains were removed from 17-30 day-old male Sprague-Dawley rats anesthetized with ketamine (180 μg/g), submerged them in ice-cold solution (in mM: NaCl 125, KCl 5, NaH2PO4 1.25, NaHCO3 28, CaCl2 0.5, MgCl2 4, D-glucose 25, kynurenic acid 1, bubbled with 95% O2/5% CO2), and cut 250 μm coronal slices using a vibroslice. Slices recovered in artificial cerebrospinal fluid (aCSF, in mM: NaCl 125, KCl 2.5, NaH2PO4 1.25, NaHCO3 25, CaCl2 2, MgCl2 1, D-glucose 25, bubbled with 95% O2/5% CO2) for >90 min prior to experiments.
(§6) Slices were transferred to a custom-made recording chamber perfused (1 ml/min) with aCSF containing 1 μM cPAF or vehicle. Membrane potentials from CA1 pyramidal neurons were recorded via whole-cell patch clamp, using 4-6 MΩ electrodes (filled with, mM: KCl 20, potassium gluconate 130, EGTA 0.5, HEPES10, MgSO4 2, ATP 2.5, GTP 0.5, pH 7.3) and a Multiclamp 700A amplifier with pClamp 9 software (Axon Instruments). Afferents were stimulated by constant current pulses (200 μs) via a bipolar stimulating electrode 50-200 μm away in the stratum radiatum. 10 μM bicuculline were included in the aCSF to isolate EPSPs, and adjusted stimulating intensity to elicit EPSPs 30% of maximal. After >10 min of test pulses (every 15 s), […] a high-frequency stimulus (HFS; three 1 s, 100 Hz trains, 20 s apart, at test-pulse intensity), then resumed test pulses for ≧50 min. […] Rising EPSP slope was used instead of peak amplitude as an index of synaptic efficacy to, avoid complication by action potentials evoked by some EPSPs after HFS. Amplitude (maximal sustained depolarization) and duration (at >25% maximal amplitude) of depolarization during HFS were also quantified.
as §4

CA1 pyramidal neurons [3] = experiment: Dendritic beading after high-frequency Schaffer collateral stimulation (HFS) in acute hippocampal slices; conditions: for effect on HFS-induced dendritic beading in cPAF-exposed slices: BAPTA 5 mM in pipette, Ac-DEVD-CHO 10 μM intracellular, L-NAME 100 μM, diazoxide 30 μM bath 40 to 60 min prior to HFS; for rate of beading following HFS in cPAF-exposed neurons: 1 μM cPAF plus CV-3988 10 μM, BN52021 2 μM or L-NAME 100 μM
Description: as §5, §6
Fluorescent images of dendrites from recorded cells were collected before and after HFS, after allowing 30 μM Alexa Fluor 568 hydrazide (Molecular Probes) in the recording electrode to fill the cell for >20 min. Using an external shutter to limit light exposure, image frames were captured at multiple focal planes and combined optimally-focused portions of these frames to display a composite image.
as §3, §4

hippocampal slices = experiment: Rhodamine 123 fluorescence (mitochondrial depolarization) after HFS in hippocampal slices; conditions: 1 μM cPAF
Description: The present experiments measure changes in mitochondrial membrane potential during and after HFS in hippocampal slices using the rhodamine 123, a cationic dye that distributes across the mitochondrial membrane in a voltage-sensitive manner. When loaded into hippocampal slices at a dose of 26 μM, rhodamine 123 accumulates in the mitochondria at high concentrations that causes its fluorescence to quench; if the mitochondria are subsequently depolarized, rhodamine 123 is released into the cytoplasm and its fluorescent signal increases. Mitochondrial hyperpolarization, conversely, drives more dye from the cytoplasm into the mitochondria, increasing quenching and reducing the signal. Reliability of this interpretation was confirmed by control experiments using FCCP and oligomycin to respectively depolarize and hyperpolarize the mitochondria.

[4] = tested on: dissociated hippocampal cultures; experiment: 60-hour cPAF exposure of dissociated hippocampal cultures: dendritic beading, spine number, neuronal survival; conditions: 130 nM cPAF, 60-hour exposure
Description: as §1, §2, §3, §4

CA1 pyramidal neurons [5] = experiment: Membrane potential and depolarization during HFS in hippocampal slices
Description: as §5
Slices were transferred to a custom-made recording chamber perfused (1 ml/min) with aCSF containing 1 μM cPAF or vehicle. Membrane potentials from CA1 pyramidal neurons were recorded via whole-cell patch clamp, using 4-6 MΩ electrodes (filled with, mM: KCl 20, potassium gluconate 130, EGTA 0.5, HEPES10, MgSO4 2, ATP 2.5, GTP 0.5, pH 7.3) and a Multiclamp 700A amplifier with pClamp 9 software (Axon Instruments). Afferents were stimulated by constant current pulses (200 μs) via a bipolar stimulating electrode 50-200 μm away in the stratum radiatum. 10 μM bicuculline were included in the aCSF to isolate EPSPs, and adjusted stimulating intensity to elicit EPSPs 30% of maximal. […] Amplitude (maximal sustained depolarization) and duration (at >25% maximal amplitude) of depolarization during HFS were also quantified.

[6] = 130 nM cPAF, BN52021 10 μM pre-treatment
[7] = cPAF-exposed slices plus compound (BN52021 2 μM, CV-3988 10 μM, Ac-DEVD-CHO 10 μM, diazoxide 30 μM), 40 to 50 min
[8] = cPAF-treated slices plus PAF-R antagonist

Compound: NC(CCCP(=O)(O)O)C(=O)O (stereo not shown) [AP-5]
- dendritic beading after 1 s KCl pulses in cPAF-exposed cultures [1, 6]: prevented

Compound: O=C(O)CN(CC(=O)O)c1ccccc1OCCOc1ccccc1N(CC(=O)O)CC(=O)O [BAPTA]
- effect on synaptic potentiation / LTP in cPAF-exposed slices (CA1 pyramidal neurons [2]): eliminated synaptic potentiation
- effect on HFS-induced dendritic beading in cPAF-exposed slices (CA1 pyramidal neurons [3]): prevented dendritic beading; also recorded: eliminated dendritic beading

Compound: CC1C(=O)OC2C(O)C34C5CC(C(C)(C)C)C36C(OC(=O)C6O)OC4(C(=O)O5)C12O (stereo not shown) [BN52021]
- EPSP potentiation following HFS (CA1 pyramidal neurons [2]; [7]): 1.29±0.05 relative to baseline
- rate of beading following HFS in cPAF-exposed neurons (CA1 pyramidal neurons [3]): 10%
- cells with dendritic beading elicited by HFS (CA1 pyramidal neurons [3]; [8]): 1 of 10
- dendritic beading after 1 s KCl pulses in cPAF-exposed cultures [1, 6]: no cells developed beading; also recorded: blocked the increase in vulnerability
- cells beaded after 5 s KCl pulses ([1]; cPAF-exposed, BN52021 10 μM pre-treatment): 86%

Compound: N#Cc1cc2[nH]c(=O)c(=O)[nH]c2cc1[N+](=O)[O-] [CNQX]
- dendritic beading after 1 s KCl pulses in cPAF-exposed cultures [1, 6]: prevented

Compound: CCCCCCCCCCCCCCCCCCNC(=O)OCC(COP(=O)([O-])OCC[n+]1ccsc1)OC (stereo not shown) [CV-3988]
- EPSP potentiation following HFS (CA1 pyramidal neurons [2]; [7]): 1.07±0.13 relative to baseline
- rate of beading following HFS in cPAF-exposed neurons (CA1 pyramidal neurons [3]): 14%
- cells with dendritic beading elicited by HFS (CA1 pyramidal neurons [3]; [8]): 1 of 7

Compound: COC(=O)[C@@H](N)CCCNC(=N)N[N+](=O)[O-] [L-NAME]
- rate of beading following HFS in cPAF-exposed neurons (CA1 pyramidal neurons [3]): 57%
- effect on HFS-induced dendritic beading in cPAF-exposed slices (CA1 pyramidal neurons [3]): no protection; also recorded: no effect

Compound: CCCCCCCCCCCCCCCCOC[C@H](COP(=O)([O-])OCC[N+](C)(C)C)OC(=O)NC [cPAF]
- increase in rhodamine 123 fluorescence compared to control slices (hippocampal slices): four-fold larger; also recorded: four-fold greater
- peak increase in rhodamine 123 fluorescence above baseline following HFS (hippocampal slices; CA1 stratum radiatum, 55 s after start of HFS): 5.90±1.86%
- EPSP potentiation following HFS (CA1 pyramidal neurons [2]; 1 μM cPAF, cells that did not develop dendritic beading, 40 to 50 min): 1.60±0.26 relative to baseline
- EPSP potentiation following HFS (CA1 pyramidal neurons [2]; 1 μM cPAF, cells whose dendrites beaded, 40 to 50 min): 0.84±0.12 relative to baseline
- recorded neurons with dendritic beading following HFS (CA1 pyramidal neurons [3]; 1 μM cPAF for 20 to 60 minutes prior to recording): 57%
- delay to appearance of HFS-induced dendritic beading (CA1 pyramidal neurons [3]; cPAF-exposed cells): 15 to 35 min
- cells with dendritic beading elicited by HFS (CA1 pyramidal neurons [3]; cPAF-treated slices): 11 of 19
- decrease in numbers of dendritic spines [4]: 45.1±5.0% and 45±5%
- neuronal survival by Hoechst and propidium iodide staining [4]: 80.2±4.3%
- neurons that developed dendritic beading ([4]; serially-imaged cells): 56%
- cells beaded in response to three 1 s KCl pulses ([1]; 130 nM cPAF, acute 20 to 90 min exposure): 90%
- baseline membrane potential (CA1 pyramidal neurons [5]; 1 μM cPAF for up to 7 hours): −63±3.6 mV
- duration of depolarization during HFS (CA1 pyramidal neurons [5]; cPAF-exposed neurons): 693 ± 296 ms

Compound: Ac-DEVD-CHO
- effect on synaptic potentiation / LTP in cPAF-exposed slices (CA1 pyramidal neurons [2]): failed to rescue LTP; also recorded: failed to restore a lasting potentiation
- EPSP potentiation following HFS (CA1 pyramidal neurons [2]; cPAF-exposed slices plus Ac-DEVD-CHO 10 μM, 0 to 10 min): 1.97±0.28 relative to baseline
- EPSP potentiation following HFS (CA1 pyramidal neurons [2]; [7]): 1.22±0.19 relative to baseline
- effect on HFS-induced dendritic beading in cPAF-exposed slices (CA1 pyramidal neurons [3]): prevented dendritic beading
